Source: patent US9346812B2, “Substituted pyrrolopyrimidine compounds, compositions thereof, and methods of treatment therewith” (Signal Pharmaceutical LLC, priority 2013, dated 2016)

Test system: CAL51 cell proliferation
Assay: Cell Titer Glo Proliferation Assay (CAL51)
Type: cell-based, human
Conditions: Homo sapiens, CAL-51; CAL51 cell proliferation, 72 h, Cell Titer Glo luminescence; read-out: Act. Level
Procedure, shortened: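 CAL51 triple-negative breast cancer cells in DMEM or RPMI with 10% FBS were treated after overnight culture with serially diluted compound at 0.2% final DMSO. After 72 h, viability was read as CellTiter-Glo luminescence.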

First: CNC(=O)c1ccc(Nc2nc(OC3CCOCC3)c3c(-c4ccc5nc(C)n(C)c5c4)c[nH]c3n2)c(OC)c1 [Example 148, 4-(5-(1,2-dimethyl-1H-benzo[d]imidazol-6-yl)-4-(tetrahydro-2H-pyran-4-yloxy)-7H-pyrrolo[2,3-d]pyrimidin-2-ylamino)-3-methoxy-N-methylbenzamide]
Second: CNC(=O)c1ccc(Nc2nc(OC3CCOCC3)c3c(-c4ccc5nc(C(C)C)oc5c4)c[nH]c3n2)c(OC)c1 [Example 170, 4-(5-(2-isopropylbenzo[d]oxazol-6-yl)-4-(tetrahydro-2H-pyran-4-yloxy)-7H-pyrrolo[2,3-d]pyrimidin-2-ylamino)-3-methoxy-N-methylbenzamide]
The IC50 of the first is lower: under 100 nM for the first, 100 to 400 nM for the second.

First: CNC(=O)c1cccc(-c2c[nH]c3nc(Nc4ccc(C(=O)NC)cc4C)nc(OC)c23)c1 [Example 149, 4-(4-methoxy-5-(3-(methylcarbamoyl)phenyl)-7H-pyrrolo[2,3-d]pyrimidin-2-ylamino)-N,3-dimethylbenzamide]
Second: CNC(=O)c1ccc(Nc2nc(OC)c3c(-c4ccncc4)c[nH]c3n2)c(C)c1 [Example 156, 4-(4-methoxy-5-(pyridin-4-yl)-7H-pyrrolo[2,3-d]pyrimidin-2-ylamino)-N,3-dimethylbenzamide]
The IC50 of the first is higher: 1000 to 10000 nM for the first, 100 to 400 nM for the second. The second is the more potent here.

CNC(=O)c1ccc(Nc2nc(O[C@H]3CC[C@](C)(O)CC3)c3c(-c4ccc5nc(C)oc5c4)c[nH]c3n2)c(C)c1 [Example 150, 4-(4-((1r,4r)-4-hydroxy-4-methylcyclohexyloxy)-5-(2-methylbenzo[d]oxazol-6-yl)-7H-pyrrolo[2,3-d]pyrimidin-2-ylamino)-N,3-dimethylbenzamide] and CNC(=O)c1ccc(Nc2nc(O[C@H]3CC[C@@](C)(O)CC3)c3c(-c4ccc5nc(C)oc5c4)c[nH]c3n2)c(C)c1 [Example 151, 4-(4-((1s,4s)-4-hydroxy-4-methylcyclohexyloxy)-5-(2-methylbenzo[d]oxazol-6-yl)-7H-pyrrolo[2,3-d]pyrimidin-2-ylamino)-N,3-dimethylbenzamide] cannot be ordered by IC50: under 100 nM for the first, under 100 nM for the second.

Compared with CNC(=O)c1ccc(-c2c[nH]c3nc(Nc4ccc(C(=O)NC)cc4C)nc(O[C@H]4CCOC4)c23)cc1 [Example 153, (S)-N,3-dimethyl-4-(5-(4-(methylcarbamoyl)phenyl)-4-(tetrahydrofuran-3-yloxy)-7H-pyrrolo[2,3-d]pyrimidin-2-ylamino)benzamide], CCOc1ccc(-c2c[nH]c3nc(Nc4ccc(C(=O)NC)cc4C)nc(O[C@H]4CCOC4)c23)cn1 [Example 162, (S)-4-(5-(6-ethoxypyridin-3-yl)-4-(tetrahydrofuran-3-yloxy)-7H-pyrrolo[2,3-d]pyrimidin-2-ylamino)-N,3-dimethylbenzamide] is higher in IC50: under 100 nM for the first, 100 to 400 nM for the second.

First: CNC(=O)c1ccc(Nc2nc(OC3CCOCC3)c3c(-c4cncnc4)c[nH]c3n2)c(OC)c1 [Example 154, 3-methoxy-N-methyl-4-(5-(pyrimidin-5-yl)-4-(tetrahydro-2H-pyran-4-yloxy)-7H-pyrrolo[2,3-d]pyrimidin-2-ylamino) benzamide]
Second: CNC(=O)c1ccc(Nc2nc(OC3CCOCC3)c3c(-c4ccnc(C)c4)c[nH]c3n2)c(OC)c1 [Example 167, 3-methoxy-N-methyl-4-(5-(2-methylpyridin-4-yl)-4-(tetrahydro-2H-pyran-4-yloxy)-7H-pyrrolo[2,3-d]pyrimidin-2-ylamino)benzamide]
The IC50 of the first is higher: 100 to 400 nM for the first, under 100 nM for the second.

CNC(=O)c1ccc(Nc2nc(OC3CCOCC3)c3c(-c4ccnc(NC)c4)c[nH]c3n2)c(OC)c1 [Example 155, 3-methoxy-N-methyl-4-(5-(2-(methylamino)pyridin-4-yl)-4-(tetrahydro-2H-pyran-4-yloxy)-7H-pyrrolo[2,3-d]pyrimidin-2-ylamino)benzamide] and CNC(=O)c1ccc(Nc2nc(OC3CCOCC3)c3c(-c4ccn(C)n4)c[nH]c3n2)c(OC)c1 [Example 163, 3-methoxy-N-methyl-4-(5-(1-methyl-1H-pyrazol-3-yl)-4-(tetrahydro-2H-pyran-4-yloxy)-7H-pyrrolo[2,3-d]pyrimidin-2-ylamino)benzamide] cannot be ordered by IC50: under 100 nM for the first, under 100 nM for the second.

First: COc1nc(Nc2ccc(C(=O)N(C)C)cc2Cl)nc2[nH]cc(-c3ccncc3)c12 [Example 157, 3-chloro-4-(4-methoxy-5-(pyridin-4-yl)-7H-pyrrolo[2,3-d]pyrimidin-2-ylamino)-N,N-dimethylbenzamide]
Second: CNC(=O)c1ccc(Nc2nc(OC)c3c(-c4ccnc(C)c4)c[nH]c3n2)c(OC)c1 [Example 166, 3-methoxy-4-(4-methoxy-5-(2-methylpyridin-4-yl)-7H-pyrrolo [2,3-d]pyrimidin-2-ylamino)-N-methylbenzamide]
The IC50 of the first is higher: 100 to 400 nM for the first, under 100 nM for the second.

First: CNC(=O)c1ccc(Nc2nc(OC3CCOCC3)c3c(-c4ccc(S(C)(=O)=O)cc4)c[nH]c3n2)c(C)c1 [Example 158, N,3-dimethyl-4-(5-(4-(methylsulfonyl)phenyl)-4-(tetrahydro-2H-pyran-4-yloxy)-7H-pyrrolo[2,3-d]pyrimidin-2-ylamino)benzamide]
Second: CNC(=O)c1ccc(-c2c[nH]c3nc(Nc4ccc(C(=O)N(C)C)cc4C)nc(OC4CCOCC4)c23)cn1 [Example 159, 5-(2-(4-(dimethylcarbamoyl)-2-methylphenylamino)-4-(tetrahydro-2H-pyran-4-yloxy)-7H-pyrrolo[2,3-d]pyrimidin-5-yl)-N-methylpicolinamide]
The IC50 of the first is higher: 400 to 1000 nM for the first, under 100 nM for the second.

COc1cc(C(=O)NCCO)ccc1Nc1nc(OC(C)C)c2c(-c3ccc4nc(C)oc4c3)c[nH]c2n1 [Example 160, N-(2-hydroxyethyl)-4-(4-isopropoxy-5-(2-methylbenzo[d]oxazol-6-yl)-7H-pyrrolo[2,3-d]pyrimidin-2-ylamino)-3-methoxybenzamide] and CNC(=O)c1ccc(Nc2nc(OCCO)c3c(-c4ccc5nc(C)oc5c4)c[nH]c3n2)c(OC)c1 [Example 168, 4-(4-(2-hydroxyethoxy)-5-(2-methylbenzo[d]oxazol-6-yl)-7H-pyrrolo[2,3-d]pyrimidin-2-ylamino)-3-methoxy-N-methylbenzamide] cannot be ordered by IC50: under 100 nM for the first, under 100 nM for the second.

Compared with CCOc1ccc(-c2c[nH]c3nc(Nc4ccc(C(=O)NC)cc4OC)nc(O[C@H]4CCOC4)c23)cn1 [Example 161, (S)-4-(5-(6-ethoxypyridin-3-yl)-4-(tetrahydrofuran-3-yloxy)-7H-pyrrolo[2,3-d]pyrimidin-2-ylamino)-3-methoxy-N-methylbenzamide], CNC(=O)c1ccc(Nc2nc(O[C@H]3CCOC3)c3c(-c4ccc5nc(C)oc5c4)c[nH]c3n2)c(OC)c1 [Example 169, (S)-3-methoxy-N-methyl-4-(5-(2-methylbenzo[d]oxazol-6-yl)-4-(tetrahydrofuran-3-yloxy)-7H-pyrrolo[2,3-d]pyrimidin-2-ylamino)benzamide] is lower in IC50: 100 to 400 nM for the first, under 100 nM for the second. The second is the more potent here.

Cc1cc(C(=O)N(C)C)ccc1Nc1nc(O[C@H]2CCOC2)c2c(-c3cnn(C)c3)c[nH]c2n1 [Example 164, (S)-N,N,3-trimethyl-4-(5-(1-methyl-1H-pyrazol-4-yl)-4-(tetrahydrofuran-3-yloxy)-7H-pyrrolo[2,3-d]pyrimidin-2-ylamino)benzamide] and CNC(=O)c1ccc(Nc2nc(O[C@H]3CCOC3)c3c(-c4cnn(C)c4)c[nH]c3n2)c(C)c1 [Example 165, (S)-N,3-dimethyl-4-(5-(1-methyl-1H-pyrazol-4-yl)-4-(tetrahydrofuran-3-yloxy)-7H-pyrrolo[2,3-d]pyrimidin-2-ylamino)benzamide] cannot be ordered by IC50: under 100 nM for the first, under 100 nM for the second.
